The values below come from US4321196A, “Bis-esters of methanediol with acetonides of ampicillin or amoxicillin and penicillanic acid 1,1-dioxide” (Pfizer Inc., priority 1981, dated 1982).

The data set is described as follows: Serum half-life comparison of Compound I with Compound II in fasted rats, and general statements on absorption and half-life. It counts as in vivo. Conditions: 20 mg/kg oral, versus Compound II (Y=H). As for the experimental part:
Since the object of the present invention is to provide a single well-absorbed source of ampicillin/amoxicillin and penicillanic acid 1,1-dioxide in serum, the compounds of the present invention are also evaluated by determination of the serum levels of these derived compounds in experimental animals, such as laboratory rats. The serum level results in fasted rats following the oral administration of 20 mg./kg. of 6'-(2,2-dimethyl-4-phenyl-5-imidazolidinon-1-yl)-penicillanoyloxymethyl penicillanate 1,1-dioxide (I, Y=H) are shown in Table I. In this test, 6'-(2-amino-2-phenylacetamido)penicillanoyloxymethyl penicillanate 1,1-dioxide (II, Y=H) at the same oral dosage has been used as control. The blood level of ampicillin was determined by standard plate bioassay methods, using Sarcina lutea 07A001 on Seed agar. For determination of penicillanic acid 1,1-dioxide, Pasturella 59B010 on MH agar was employed. It will be noted there is an approximately 50% improvement in the half-life of Compound I (Y=H) over Compound II (Y=H).

As to `CC1(C)S[C@@H]2[C@H](N3C(=O)[C@@H](c4ccccc4)NC3(C)C)C(=O)N2[C@H]1C(=O)OCOC(=O)[C@@H]1N2C(=O)C[C@H]2S(=O)(=O)C1(C)C` [Compound I (Y = H), 6'-(2,2-Dimethyl-4-phenyl-5-imidazolidinon-1-yl)-penicillanoyloxymethyl Penicillanate 1,1-Dioxide], the “Improvement in the half-life over Compound II (Y=H)” value is “approximately 50%”.
